Data on 7 compounds can be found in patent US12390437B2, “Itaconic acid derivatives and uses thereof intreating an inflammatory disease or a disease associated with an undesirable immune response” (Sitryx Therapeutics Limited, priority 2019, dated 2025).

For one test, the system named is NQO1. The test can be described thus: NQO1 enzyme activation assay as a readout of NRF2 activation in THP-1 cells. The test is classed as cell-based. The settings on record: Homo sapiens; for Emax: THP-1, percentage activation at top concentration, normalised to DMF (100%) and vehicle controls; for EC50: differentiated THP-1 cells, LPS, 48 hr. How it is done:
NQO1 Enzyme Activation Assay as a Readout of NRF2 Activation in THP-1 Cellular Background
NAD(P)H dehydrogenase [quinone] […] Induction of this gene is concomitant with the inhibition of proinflammatory cytokine transcription and suppression of the inflammatory response (Kobayashi E. H. et al., 2016). The NQO1 enzyme activation activities of compounds of formula (IW-1) were determined using a cellular based NQO1 activation assay (Abcam). The NQO1 activation assay was run in differentiated THP-1 cells (a human monocyte-like cell line) as described below. All reagents described are from Sigma-Aldrich unless specified otherwise. Compounds were prepared as 10 mM DMSO stocks.
THP-1 cells were expanded as a suspension up to 80% confluence in appropriate growth medium. Cells were harvested, suspended, treated with phorbol 12-myristate 13-acetate (PMA) and plated according to the cell density required for each plate format over a 72 hr period (37° C./5% CO2).
Following 72 hrs of THP-1 cell incubation, cellular medium was removed and replaced with fresh media. Working concentrations of compounds were prepared and pre-incubated for 30 minutes (37° C./5% CO2). Compound treatment was then applied to the PMA treated THP-1 cell plate followed by LPS treatment. A ‘low’ (DMSO vehicle only) control and ‘high’ (designated concentration of dimethyl fumarate) was applied to each plate at the point of compound treatment. Cells were subsequently incubated for a 48 hr period (37° C./5% C02) after which all NQO1 assay reagents were prepared according to the manufacturer's instructions. NQO1 extraction buffer was applied to PBS washed THP-1 cells and incubated on ice for 15 minutes to prepare THP-1 lysates for the NQO1 activity assay. THP-1 lysates were diluted 1:5 with PBS and treated with a 1:1 volume of kit prepared NQO1 Reaction Buffer. Absorbance was subsequently measured kinetically on an appropriate reader over a 6 minute period.
For activation determination, the fold change in response per well was determined by first calculating the average NQO1 activation data for the vehicle control and then dividing the individual well response by the averaged NQO1 response for the vehicle control as shown below: Fold change=(Sample value)/MeanMin Where ‘Min’=vehicle control only
The relative 50% activation concentration (EC50) was determined from the resulting fold change response curve. The maximum efficacy (Emax) was reported as the percentage activation calculated at the top concentration of compound used in the titration applied. If a full curve was unattainable preventing a correct curve fit, the Emax value was extrapolated using existing curve data. All percentage activation data were normalised to the DMF and vehicle controls, meaning the Emax represents the percentage […] achieved by a compound at a particular concentration relative to that achieved by DMF (set as the ‘High’ control and therefore representative of 100% activation).

Test [1] relates to IL-1β cytokine output from THP-1s. The test is described as follows: THP-1 AlphaLISA IL-1β cytokine assay. The settings on record: Homo sapiens, THP-1, PMA-differentiated THP-1 cells, LPS 24 hr then Nigericin 1 hour; read-out: IL-1β (IC50). In kind it is cell-based, human. In outline:
(§1)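 Percent inhibition, normalised to plus- and minus-LPS controls, was plotted against concentration to derive IC50. Differentiated THP-1 cells received compound 30 min ahead of LPS (24 h) and a 1 h nigericin pulse; AlphaLISA quantified supernatant cytokine.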
In general terms: Alpha assays give light when donor and acceptor beads are brought close together.

The test system of test [2] is IL-6 cytokine output from THP-1s. The test can be described thus: THP-1 AlphaLISA IL-6 cytokine assay. In kind it is cell-based, human. The settings on record: Homo sapiens; PMA-differentiated THP-1 cells, LPS 24 hr then Nigericin 1 hour. The gist of the method: as §1
In another test the test system is NRF2. The test is described as follows: NRF2 +/-GSH activation assay (DiscoverX PathHunter NRF2 translocation kit, U2OS cells). The test is classed as cell-based. The settings on record: Homo sapiens, GSH condition not stated in Table 5; for Emax: U2OS, normalised to dimethyl fumarate 'High' control, read-out: NRF2 activation Emax; for EC50: U2OS PathHunter cells, 6 hours, read-out: NRF2 activation EC50. The gist of the method: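 Percent activation, normalised to dimethyl fumarate (high) and vehicle (low) controls, was fitted for EC50 after 6 hours treatment of U2OS PathHunter cells. In the +GSH arm compounds were first pre-incubated 30 minutes in 6 mM working GSH; NRF2 translocation read by chemiluminescent complementation.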

One may read the Emax as the size of the effect at its maximum, as opposed to the concentration needed. By EC50 is commonly meant the concentration needed to bring the measured effect to its halfway point. As usually defined, the IC50 is the midpoint of a concentration-inhibition curve. On to `C=C(CC(=O)OCCCOc1ccccc1)C(=O)OCCS(C)(=O)=O` [Example 20, 1-(2-(methylsulfonyl)ethyl) 4-(3-phenoxypropyl) 2-methylenesuccinate], for which the Emax in the test with NQO1 was 224%; in the test on NRF2, 116%. The concentration for a half-maximal effect (EC50) with NQO1 was found to be 20 µM; in the test with NRF2 it was 13.5 µM. The IC50 amounted to 5.6 µM in test [1] and 3.4 µM in test [2].
Regarding `C=C(CC(=O)OCCCCCCCC)C(=O)OCC(=O)N(C)C` [Example 21, 1-(2-(dimethylamino)-2-oxoethyl) 4-octyl 2-methylenesuccinate], in the test on NQO1, the maximal response (Emax) amounted to 150% and the concentration giving a half-maximal response (EC50) came out at 12.1 µM. The 50% inhibitory concentration (IC50) in test [1] was found to be 2.9 µM. Also, 2.4 µM corresponded to half-maximal inhibition in test [2] (IC50).
For `C=C(CC(=O)OCCCCCCCC)C(=O)OCCS(=O)(=O)c1ccc(C)cc1` [Example 40, 4-octyl 1-(2-tosylethyl) 2-methylenesuccinate], in that order: 56%, 16.6 µM, 1.7 µM and 3.4 µM.
With `C=C(CC(=O)OCCCCCCCC)C(=O)OCCN1CCCC1=O` [Example 5, 4-octyl 1-(2-(2-oxopyrrolidin-1-yl)ethyl) 2-methylenesuccinate], the Emax in the test on NQO1 came out at 81%; with NRF2, 216%. For the same compound, the figures for the EC50 in the test with NQO1 and with NRF2 were 5.9 µM and 5.7 µM, respectively. Moreover, the values for the half-inhibitory concentration (IC50) in test [1] and in test [2] were 6.5 µM and 2 µM, respectively.
In the test on NQO1, `C=C(CC(=O)OCCCCCC)C(=O)OC1COC1` [Example 38, 4-hexyl 1-(oxetan-3-yl) 2-methylenesuccinate] gave a maximal response (Emax) of 111% and an EC50 of 8.5 µM. Moreover, in test [1], the IC50 is 7.4 µM. Also, half-maximal inhibition in test [2] (IC50) required 6.8 µM.
On to `C=C(CC(=O)OCCCCCC)C(=O)OCCS(C)(=O)=O` [Example 14, 4-hexyl 1-(2-(methylsulfonyl)ethyl) 2-methylenesuccinate], for which the Emax in the test on NQO1 turned out to be 180%; with NRF2, 189%. Further, the results for the EC50 with NQO1 and with NRF2 were 14.4 µM and 8.8 µM, respectively. The figures for the 50% inhibitory concentration (IC50) in test [1] and in test [2] were 1.6 µM and 2.1 µM, respectively.
With `C=C(CC(=O)OCCCCCCCC)C(=O)OCCC(=O)N(C)C` [Example 6, 1-(3-(dimethylamino)-3-oxopropyl) 4-octyl 2-methylenesuccinate], in the test on NQO1, the Emax was determined as 154% and the EC50 is 30.6 µM. Also, the IC50 in test [1] was determined as 12.8 µM. The compound further yielded an IC50 in test [2] of 12.1 µM.
